# Reference: PMC7414031, “Correlation between hemolytic activity, cytotoxicity and systemic in vivo toxicity of synthetic antimicrobial peptides” (Scientific Reports, 2020)
# Square brackets hold non-standard residues; d marks the D form. Peptide text beside a SMILES is read from it. N(1-naphthylmethyl)Gly = O=C(O)CNCc1cccc2ccccc12; Nphe = O=C(O)CNCc1ccccc1; NBuGly = CCCCNCC(=O)O
# How the values were obtained:
# canine erythrocytes = assay: in vitro; type: cell-based, dog; conditions: for IC10 haemolysis: canine erythrocytes; for IC50: red cells of canine
# Procedure: (§1) The haemolytic activity of the 24 structurally related peptides (Table 1) was evaluated in erythrocytes from four different species (human, canine, bovine and rat) employing standard methodology. The subsequent release of haemoglobin was used to assess haemolytic activity as function of peptide and peptidomimetic concentration, with concentrations ranging from 0.15 to 150 µM (Presented in whole in Supplementary information Table S1–S4).
# (§2) Human and rat (Sprague–Dawley) blood samples were purchased by Bioreclamation IVT (Westbury, NY, USA), collected in tubes containing heparin as anticoagulant and stored at 4 °C before use. Dog and bovine whole blood was collected from in-house animals at Zoetis Animal Health, Kalamazoo, Michigan and stored at 4 °C in tubes containing heparin as anticoagulant. 10 mL of each whole blood sample were centrifuged at 1,500 × g for 5 min and the resulting plasma fraction was removed from the samples. The pellets were washed with an equal volume (10 mL) of saline, mixing by inversion. The centrifuging and washing steps were repeated 5 times. After the last washing step, a volume of PBS was added, and the resulting samples were diluted 1:10 with PBS to yield an RBC concentration of ~ 5 × 10^8 RBC/mL. The assay was performed in a 384-well polypropylene microplate (Greiner 784201, Greiner Bio-One International, GMBH) through a Bravo Liquid Handling Platform 384 system (Agilent Technologies, Santa Clara, CA, USA) according to the previously published procedures. The compounds were tested in serial 1:1 dilutions in PBS, with final concentrations ranging from 150 to 1.2 µM. Melittin was used as reference lytic peptide. 1% TritonX100 and PBS were used as positive and negative (diluent) controls, respectively. The final concentrations were obtained by adding to the wells 7 µL of each solution, melittin or PBS, followed by 63 µL of RBCs to each well. The plate was sealed, shaken on a plate shaker for 20 s, incubated for one hour at 37 °C. Finally, it was centrifuged at 1,500 × g for 5 min at room temperature. 60 µL of supernatants were removed from all plate wells via a Bravo 384 robot and transferred to a flat-bottomed 384-well plate (Greiner UV-Star #7810801, Greiner Bio-One International, GMBH). The plate was centrifuged at 1,000 g for 1 min to remove air bubbles and optical density was measured at 405 nm using a plate reader. Percentage of haemolysis was calculated with the following equation: %haemolysis=(absorbance of test sample)-absorbance of diluent/absorbance of positive control-absorbance of diluent×100.
# in vitro [1] = type: cell-based, dog; conditions: dog
# Procedure: as §1, §2
# in vitro [2] = type: cell-based, rat (Sprague–Dawley); conditions: Sprague-Dawley, rat
# Procedure: as §1, §2
# rat erythrocytes = assay: in vitro; type: cell-based, rat (Sprague–Dawley); conditions: for IC10 haemolysis: rat erythrocytes; for IC50: red cells of rat
# Procedure: as §1, §2
# human erythrocytes [3] = conditions: cited from earlier work
# [4] = tested on: Staphylococcus pseudintermedius; conditions: cited from earlier work
# in vitro [5] = type: cell-based, bovine; conditions: bovine
# Procedure: as §1, §2
# in vitro [6] = type: cell-based, human; conditions: human
# Procedure: as §1, §2
# human erythrocytes [7] = assay: in vitro; type: cell-based; conditions: for IC10 haemolysis: human erythrocytes; for IC50: red cells of human
# Procedure: as §1, §2
# Staphylococcus aureus = tested on: Staphylococcus aureus; set-up: method as in PMID 30842436; conditions: cited from earlier work
# Pseudomonas aeruginosa = tested on: Pseudomonas aeruginosa; set-up: method as in PMID 30842436; conditions: cited from earlier work
# HaCaT cells = type: cell-based, human; conditions: 1 h
# Procedure: (§3) An immortalised human keratinocyte (HaCaT) cell line (Gift from David Gram Naym at Bispebjerg Hospital, Denmark), a human liver cancer cell line (HepG2; ATCC HB-8065) and a human epithelial cervical cancer cell line (HeLa; ATCC CCL-2) were cultured to ∼90% confluence after 21–25 h of growth under standard conditions (5% CO2 at 37 °C). Cells were cultured in Dulbecco’s Modified Eagle’s Medium supplemented with 10% (v/v) fetal bovine serum (FBS). All culture media were supplemented with penicillin (100 IU/mL) and streptomycin (100 μg/mL). All cell media and supplements were obtained from Sigma-Aldrich (St. Louis, MO, United States). The 96-well plates were supplied by Corning Costar (Sigma-Aldrich, Brøndby, Denmark). Cell viability assessment was performed on cell monolayers grown to ∼90% confluence in 96-well plates by using the MTS/PMS assay as previously described. Briefly, the adhered cells were washed with PBS solution (37 °C) (ThermoFisher Scientific, Roskilde) and exposed for 1 h at 37 °C to 100 μL of peptides dissolved in the medium also used for culturing of the cell line (at concentrations in the range 0–1,000 μg/mL). The cells were subsequently washed twice with 37 °C PBS and then 100 μL of an MTS/PMS solution in media, consisting of 240 μg/mL MTS (Promega, Madison, WI, United States) and 2.4 mg/mL PMS (Promega, Madison, WI, United States), was added to the cells, which then were incubated for 1 h at 37 °C protected from light. A plate reader (SpectraMax i3X; Molecular devices, San Jose, CA) was used to measure the absorbance at 492 nm. The relative viability was calculated by using 0.2% (w/v) sodium dodecyl sulfate (SDS) as the positive control, while cells exposed to medium without test compound were used as the negative control.
# HeLa cells = type: cell-based, human; conditions: 1 h
# Procedure: as §3
Structure (SMILES),Haemolysis at 80 µM (in words) (canine erythrocytes),IC10 haemolysis (canine erythrocytes) [µM],IC50 (canine erythrocytes) [µM],"hemolysis at 1 h, 150 µM (in vitro [1]) [%]","hemolysis at 1 h, 150 µM (in vitro [2]) [%]",Haemolysis at 80 µM (in words) (rat erythrocytes),IC10 haemolysis (rat erythrocytes) [µM],IC50 (rat erythrocytes) [µM],Previously reported haemolytic activity against human erythrocytes (in words) (human erythrocytes [3]),MIC against Staphylococcus pseudintermedius [4] [µg/mL],"hemolysis at 1 h, 150 µM (in vitro [5]) [%]","hemolysis at 1 h, 150 µM (in vitro [6]) [%]",Haemolysis at 80 µM (in words) (human erythrocytes [7]),IC10 haemolysis (human erythrocytes [7]) [µM],IC50 (human erythrocytes [7]) [µM],MIC against Staphylococcus aureus (Staphylococcus aureus) [µg/mL],MIC against Pseudomonas aeruginosa (Pseudomonas aeruginosa) [µg/mL],IC50 (HaCaT cells) [µM],IC50 (HeLa cells) [µM],"S.p. MIC ([4]; Staphylococcus pseudintermedius, Table S5, in µM) [µM]"
"CCCC[C@H](NC(=O)[C@H](CCCCN)NC(=O)[C@H](CCCCN)NC(=O)[C@@H](N)CCCCN)C(=O)N[C@@H](Cc1ccc2ccccc2c1)C(=O)N[C@@H](Cc1ccccc1)C(=O)N[C@@H](Cc1ccc2ccccc2c1)C(N)=O [Compound 18, Lys-Lys-Lys-Nle-(2-Nal)Ala-Phe-(2-Nal)Ala] (HELM PEPTIDE1{K.K.K.[Nle].[O=C([C@H](Cc1ccc2ccccc2c1)N[*:1])[*:2]].F.[O=C([C@H](Cc1ccc2ccccc2c1)N[*:1])[*:2]].[am]}$$$$V2.0)",near total haemolysis,21.4,42.7,101,98.6,near total haemolysis,64.4,87.8,high in vitro haemolytic activity,2 to 4,< 8,58.8,near total haemolysis,18.7,95.6,32 to 64,8,–,–,–
"CC(C)C[C@@H](NC(=O)[C@H](CCCCN)NC(=O)[C@@H](Cc1cccc2ccccc12)NC(=O)[C@@H](Cc1ccccc1)NC(=O)[C@H](N)Cc1cccc2ccccc12)C(=O)N[C@@H](CCCCN)C(=O)N[C@@H](CCCCN)C(N)=O [Compound 8, (1-Nal)Ala-Phe-(1-Nal)Ala-Lys-Leu-Lys-Lys] (HELM PEPTIDE1{[N[C@H](Cc1cccc2ccccc12)C(=O)[*:2]].[dF].[O=C([C@@H](Cc1cccc2ccccc12)N[*:1])[*:2]].K.[dL].K.K.[am]}$$$$V2.0)",–,66.0,> 150,25.8,< 8,–,> 150,> 150,no haemolytic activity,16,< 8,34.3,–,57.0,> 150,32 to 64,> 64,–,–,–
"CCCCN(CC(=O)N(CC(=O)N(CC(=O)N(CC(N)=O)Cc1cccc2ccccc12)Cc1ccccc1)Cc1cccc2ccccc12)C(=O)[C@H](CCCCN)NC(=O)[C@H](CCCCN)NC(=O)[C@@H](N)CCCCN [Compound 15, Lys-Lys-Lys-(N-Bu)Gly-(N1-Nal)Gly-(N-Phe)Gly-(N1-Nal)Gly] (H-KKK[NBuGly][N(1-naphthylmethyl)Gly][Nphe][N(1-naphthylmethyl)Gly]-NH2)",near total haemolysis,11.6,65.7,87.1,99.5,near total haemolysis,35.61,47.6,–,4,< 8,94.2,near total haemolysis,8.4,41.7,16,32,297,394,3.8
